Where two headings read alike, the source gives them in different places.

Test [1] concerns the target T1, α4β2 subtype of nicotinic acetylcholine receptors (Rattus norvegicus, UniProt P09483+P12390).
T1 construct: rat brain membrane obtained from whole homogenized brain; from tissue; host or cells: whole brain of Fischer-344 male rats, membrane fraction
Put plainly: Binding assay at α4β2 subtype of nicotinic acetylcholine receptors ([3H]-cytisine, rat brain membrane). The following applies: read-out: control % of [3H]-cytisine binding. An excerpt:
(§1) The methods for evaluating the binding capabilities of the compounds at nicotinic acetylcholine receptors are different by subtypes of receptors. The binding capabilities of the compounds at α4β2 nicotinic acetylcholine receptors are examined using rat brain membrane obtained from whole homogenized brain, and determining the inhibiting rate of the compounds against [^3H]-cytisine binding to said brain membrane. Furthermore, the binding capabilities of the compounds at α1β1γδ nicotinic acetylcholine receptors are examined using homogenized rat muscle, and determining the inhibiting rate of the compounds against [^3H]-α-bungarotoxin binding to said muscle homogenate.
The affinity of the compounds of the present invention to α4β2 subtype of nicotinic acetylcholine receptors was performed by the following method, which was modified method described by Pabreza L. A., Dhawan S. & Kellar K. J., Mol. Pharm., 39, 9-12 (1990), and by Anderson D. J. & Arneric S. P., Eur. J. Pharm., 253, 261-267 (1994).
(1) Preparation of Rat Brain Membrane Containing α4β2 Subtype of Nicotinic Acetylcholine Receptors
Fischer-344 strain male rats (body weight: 200-240 g; 9 weeks old) obtained from Charles River Japan were used. Rats were housed in the breeding cage controlled of the room temperature at 23±1° C., and the humidity of 55±5% for 1 to 4 weeks. Rats (3 to 4 rats per a cage) were housed with lights on for 12 hours daily (from 7:00 to 19:00), and allowed free access to food and water.
Preparation of rat brain membrane containing α4β2 subtype of nicotinic acetylcholine receptors was performed as follow. That is, rat brains were isolated just after sacrificed by decapitation, washed with ice-cooled saline solution and then frozen at −80° C. with liquid nitrogen and stored till using. After thawing the frozen brain, the brain was homogenized in 10 volumes of ice-cooled buffer solution (50 mM of Tris-HCl, 120 mM of NaCl, 5 mM of KCl, 1 mM of MgCl2, 2 mM of CaCl2; pH 7.4; 4° C.) using homogenizer (HG30, Hitachi Kohki Ltd.) for 30 seconds, and the homogenate were centrifuged under 1,000×G for 10 minutes at 4° C. The resulting supernatant was separated and the pellet was homogenized again with half volume of aforementioned prior buffer solution and centrifuged under the same conditions. Combined supernatant was further centrifuged under 40,000×G for 20 minutes at 4° C. The pellet was suspended in buffer solution and used for binding assays at receptors.
(2) Experiments of α4β2 Subtype of Nicotinic Acetylcholine Receptors Binding
Suspensions of membrane pellets containing 400-600 μg of protein were added to test tubes containing test compounds and [^3H]-cytisine (2 nM) in a final volume of 200 μl and incubated for 75 minutes in ice-cooled bath. The samples were isolated by vacuum filtration onto Whatman GF/B filters, which were prerinsed with 0.5% polyethylenimine just prior to sample filtration, using Brandel multi manifold cell harvester. The filters were rapidly washed with buffer solution (3×1 ml). The filters were counted in 3 ml of clearsol I (Nacalai Tesque Inc.).
The analyses of the experimental results were conducted by using the Accufit Competition Program (Beckman Ltd.).

Test [2] addresses α1β1γδ subtype of nicotinic acetylcholine receptors (Rattus norvegicus, UniProt P18916+P25108+P25110). The experiment in a line: biochemical. The following applies: read-out: control % of [3H]-α-Bgt binding. The class given is binding.
Text: as §1
The affinity of the compounds of the present invention to α1β1γδ subtype of nicotinic acetylcholine receptors was measured by the following method, which was modified method described by Garcha H. S., Thomas P., Spivak C. E., Wonnacott S. & Stolerman I. P., Psychropharmacology, 110, 347-354 (1993).
(1) Preparation of Rat Skeletal Muscles Containing α1β1γδ Subtype of Nicotinic Acetylcholine Receptors
The substantially same animals described in the Biological Experiment 1 were used.
The isolation of α1β1γδ subtype of nicotinic acetylcholine receptors was performed as follow. That is, rat posterior skeletal muscles were isolated just after sacrificed by decapitation, washed with ice-cooled saline solution and then frozen at −80° C. with liquid nitrogen and stored till using. After thawing the frozen muscles, tissue was homogenized (40% w/v) with buffer solution [2.5 mM of sodium phosphate buffer (pH:7.2), 90 mM of NaCl, 2 mM of KCl, 1 mM of EDTA, 2 mM of benzamidine, 0.1 mM of benzethonium chloride, 0.1 mM of PMSF, 0.01% of sodium azide] in Waring blender (Waring blender 34BL97; WARING PRODUCTS DIVISION DYNAMICS CORPORATION OF AMERICA) for 60 seconds. The homogenate were centrifuged under 20,000×G for 60 minutes at 4° C. The supernatant was separated and the resulting pellet was added to the same buffer (1.5 ml/g wet weight), and homogenized under the same conditions. Triton X100 (2% w/v) was added and the mixture was stirred for 3 hours at 4° C. The centrifugation at 100,000×G for 60 minutes at 4° C. yielded the rat muscle extract as supernatant. This was stored at 4° C. for up to 4 weeks, and used for binding assays at receptors.
(2) Experiments of α1β1γδ Subtype of Nicotinic Acetylcholine Receptors Binding
Receptors binding experiments were performed as follow. That is, the extract of rat muscle containing 600-900 μg of protein was added to test tubes containing test compounds and incubated for 15 minutes at 37° C. Then, to this mixture was added 1 nM of [^3H]-α-bungarotoxin (α-Bgt) and further incubated for 2 hours. The samples were isolated by vacuum filtration onto Whatman GF/B filters, which were prerinsed with 0.5% polyethylenimine just prior to sample filtration, using Brandel multi manifold cell harvester. The filters were rapidly rinsed with washing solution (10 mM of KH2PO4, 150 mM of NaCl, pH 7.2, room temperature) (5×1 ml). The filters were counted in 3 ml of clearsol I (Nacalai Tesque Inc.). The determination of nonspecific binding was incubated in the presence of 1 μM α-Bgt. The solutions containing α-Bgt (labeled/non-labeled) were prepared by using buffer solution containing 0.25% of BSA. In the receptor binding experiments, said buffer solution was added for adjusting the final concentration of BSA to be 0.05%.
The analyses of the experimental results were conducted by the same way as described in the Biological Experiment 1.

The mark [3] stands for this setting: 1 μM of test compound, rat brain membrane.
The mark [4] stands for this setting: 10 μM of test compound, rat brain membrane.

T1 sequence (P09483 31-630): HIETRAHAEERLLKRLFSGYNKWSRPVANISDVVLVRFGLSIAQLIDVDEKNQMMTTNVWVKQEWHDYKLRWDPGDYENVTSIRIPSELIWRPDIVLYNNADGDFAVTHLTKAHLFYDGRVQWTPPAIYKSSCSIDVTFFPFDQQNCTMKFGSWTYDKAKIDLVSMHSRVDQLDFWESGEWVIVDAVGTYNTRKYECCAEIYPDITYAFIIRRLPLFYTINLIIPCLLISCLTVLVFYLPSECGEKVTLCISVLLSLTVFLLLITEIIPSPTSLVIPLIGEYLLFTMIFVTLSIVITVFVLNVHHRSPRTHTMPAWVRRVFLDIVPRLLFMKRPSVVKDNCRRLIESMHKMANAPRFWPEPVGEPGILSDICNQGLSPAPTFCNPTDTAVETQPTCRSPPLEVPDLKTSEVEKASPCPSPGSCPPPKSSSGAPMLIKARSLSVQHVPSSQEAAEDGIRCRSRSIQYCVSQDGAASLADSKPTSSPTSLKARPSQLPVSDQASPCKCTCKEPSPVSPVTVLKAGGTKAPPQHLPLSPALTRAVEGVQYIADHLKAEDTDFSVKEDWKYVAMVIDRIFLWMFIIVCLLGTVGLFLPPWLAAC
T1 sequence (P12390 25-500): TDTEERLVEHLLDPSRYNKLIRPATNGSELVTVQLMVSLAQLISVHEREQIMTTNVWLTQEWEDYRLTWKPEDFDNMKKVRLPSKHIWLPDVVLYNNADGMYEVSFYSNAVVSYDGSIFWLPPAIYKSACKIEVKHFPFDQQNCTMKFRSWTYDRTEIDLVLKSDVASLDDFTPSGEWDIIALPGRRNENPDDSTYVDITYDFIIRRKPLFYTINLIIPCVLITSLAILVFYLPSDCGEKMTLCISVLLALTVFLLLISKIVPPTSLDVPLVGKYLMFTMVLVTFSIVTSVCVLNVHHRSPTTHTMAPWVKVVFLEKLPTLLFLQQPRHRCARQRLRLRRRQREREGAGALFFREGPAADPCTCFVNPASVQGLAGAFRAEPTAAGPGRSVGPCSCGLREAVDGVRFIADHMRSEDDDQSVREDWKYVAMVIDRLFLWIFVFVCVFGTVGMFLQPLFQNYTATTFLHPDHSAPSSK
Chain of α1β1γδ subtype of nicotinic acetylcholine receptors (P25109 24-501): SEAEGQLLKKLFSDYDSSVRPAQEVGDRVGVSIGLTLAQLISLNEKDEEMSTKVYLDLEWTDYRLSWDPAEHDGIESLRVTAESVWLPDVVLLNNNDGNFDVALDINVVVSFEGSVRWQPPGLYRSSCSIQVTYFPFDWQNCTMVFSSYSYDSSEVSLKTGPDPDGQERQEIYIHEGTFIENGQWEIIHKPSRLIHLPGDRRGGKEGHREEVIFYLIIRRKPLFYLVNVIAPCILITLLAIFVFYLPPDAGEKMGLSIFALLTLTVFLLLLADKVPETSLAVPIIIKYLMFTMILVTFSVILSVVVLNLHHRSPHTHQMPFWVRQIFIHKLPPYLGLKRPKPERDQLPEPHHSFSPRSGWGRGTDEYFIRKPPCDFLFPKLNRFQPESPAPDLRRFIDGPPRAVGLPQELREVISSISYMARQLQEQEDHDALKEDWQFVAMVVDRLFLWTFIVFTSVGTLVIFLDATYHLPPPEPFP
Chain of α1β1γδ subtype of nicotinic acetylcholine receptors (P25110 22-517): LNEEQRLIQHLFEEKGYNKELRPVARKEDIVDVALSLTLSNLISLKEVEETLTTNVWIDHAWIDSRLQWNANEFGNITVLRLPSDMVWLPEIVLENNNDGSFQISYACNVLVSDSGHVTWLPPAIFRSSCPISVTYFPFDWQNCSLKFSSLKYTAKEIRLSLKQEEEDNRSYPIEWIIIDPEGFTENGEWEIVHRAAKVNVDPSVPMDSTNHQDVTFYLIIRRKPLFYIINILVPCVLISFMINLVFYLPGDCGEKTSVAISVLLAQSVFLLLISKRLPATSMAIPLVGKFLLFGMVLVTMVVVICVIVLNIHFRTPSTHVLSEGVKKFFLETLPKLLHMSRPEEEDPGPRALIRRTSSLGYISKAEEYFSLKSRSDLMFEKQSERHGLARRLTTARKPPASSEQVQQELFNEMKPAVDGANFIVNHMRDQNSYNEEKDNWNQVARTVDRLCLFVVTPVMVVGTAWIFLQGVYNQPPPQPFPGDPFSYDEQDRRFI
Chain of α1β1γδ subtype of nicotinic acetylcholine receptors (P25108 21-457): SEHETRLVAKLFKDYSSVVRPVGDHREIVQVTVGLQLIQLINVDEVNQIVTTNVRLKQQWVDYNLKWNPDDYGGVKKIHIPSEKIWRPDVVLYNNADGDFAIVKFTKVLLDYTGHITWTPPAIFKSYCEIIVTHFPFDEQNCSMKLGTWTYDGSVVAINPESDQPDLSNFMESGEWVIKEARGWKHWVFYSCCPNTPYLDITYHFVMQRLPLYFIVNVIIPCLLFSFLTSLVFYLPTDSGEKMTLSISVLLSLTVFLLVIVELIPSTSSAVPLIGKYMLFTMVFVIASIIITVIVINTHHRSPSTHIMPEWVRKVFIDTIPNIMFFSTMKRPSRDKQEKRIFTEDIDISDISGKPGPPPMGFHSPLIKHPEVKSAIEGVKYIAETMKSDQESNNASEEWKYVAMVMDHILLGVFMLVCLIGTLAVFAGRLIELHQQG
Chain of α1β1γδ subtype of nicotinic acetylcholine receptors (P18916 23-519): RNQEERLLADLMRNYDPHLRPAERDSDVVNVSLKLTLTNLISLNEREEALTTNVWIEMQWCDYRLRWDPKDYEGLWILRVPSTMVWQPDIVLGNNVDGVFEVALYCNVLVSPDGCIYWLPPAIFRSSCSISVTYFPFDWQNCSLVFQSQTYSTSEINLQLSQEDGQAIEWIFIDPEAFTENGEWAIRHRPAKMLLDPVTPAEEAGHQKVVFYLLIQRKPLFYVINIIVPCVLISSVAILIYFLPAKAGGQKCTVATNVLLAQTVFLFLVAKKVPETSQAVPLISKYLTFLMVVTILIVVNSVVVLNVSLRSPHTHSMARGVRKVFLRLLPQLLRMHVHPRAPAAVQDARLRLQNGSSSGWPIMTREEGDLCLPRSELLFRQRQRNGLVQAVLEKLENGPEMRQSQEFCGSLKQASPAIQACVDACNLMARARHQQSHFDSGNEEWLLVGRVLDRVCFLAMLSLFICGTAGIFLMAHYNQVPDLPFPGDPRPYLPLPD

In the case of `Nc1nccn1CCc1ccccc1Sc1ccc(O)cc1` [Compound 32, 2-amino-1-{2-[2-(4-hydroxyphenyl)thiophenyl]ethyl}-imidazole], in test [1] (setting [3]), the remaining activity at 1 µM was 102%. Also, in test [1] (setting [4]), the remaining activity at 10 µM amounted to 73%. In test [2], the remaining activity at 100 µM is 107% and the remaining activity at 1000 µM was determined as 81%.
The like results for `COc1ccc(Sc2ccccc2CCn2ccnc2N)cc1` [Compound 33, 2-amino-1-{2-[2-(4-methoxyphenyl)thiophenyl]ethyl}-imidazole] were, in that order, 111%, 92%, 119% and 85%.
With `Nc1nccn1CCc1cncnc1Cl` [Compound 35, 2-amino-1-[2-(4-chloro-5-pyrimidyl)ethyl]imidazole], in test [1], the remaining activity at 1 µM was 61% and the remaining activity at 10 µM worked out at 17%. Further, in test [2], the remaining activity at 100 µM was found to be 87% and the remaining activity at 1000 µM turned out to be 49%.

(Values after patent US20030134848A1, “Substituted 1-aza-2-imino-heterocycles and their use as nicotinic acetylcholin receptors activators” (priority 2000, published 2003).)
